In PubChem BioAssay AID2305 (GlaxoSmithKline (GSK), 2010):
Several values for one entry are separate records, joined by “and”; a condition that tells them apart may be missing. Equal entries are not always repeated.

What follows are molecules tested on P. falciparum 3D7 growth, pLDH absorbance (assay: P. falciparum 3D7 growth inhibition, dose response, strain 3D7 (AID 2305)).
Molecule Cc1cc(NC2CCCC2)nc(Nc2ccccc2C)n1 has an IC50 of 1350 nM. In the case of COCCNCc1cccc(-c2ccc(CNC3CCN(Cc4ccccc4)CC3)cc2)c1, the IC50 is reported as 510 nM. Work on COc1cccc(CN2CCC(N3CCc4cc(NC(=O)c5cc(C)on5)ccc43)C2)c1OC (centres undefined) yielded an IC50 of 950 nM. O=C(CCOc1ccccc1)NCC1CCCO1 (centres undefined) gave an IC50 of 1000 nM. For Cc1cccc2[nH]c(-c3ccc(-c4ccc(NC(=O)Nc5ccc(Cl)c(Cl)c5)cc4)s3)nc12, the IC50 was 180 nM. CC1CCCC(Nc2noc(-c3sccc3Br)n2)C1 (centres undefined) was tested, and the IC50 was 690 nM. With COc1cccc(NC(=O)NC2CCN(c3ccnc(Nc4cc(OC)c(OC)c(OC)c4)n3)C2)c1 (centres undefined) the IC50 was 860 nM. With Brc1ccc(Nc2nc(NCC3CCCO3)c3ccccc3n2)cc1 (centres undefined) the IC50 was 580 nM. O=c1cc(NCCCNCc2sc(Br)c(Br)c2Br)[nH]c2ccccc12 gave an IC50 of 1010 nM. For CCCOc1cc(OCCC)cc(-c2ccc(C(=O)Nc3ccc4ccc(C)nc4c3)c(=O)[nH]2)c1, the IC50 was 750 nM. In the case of COc1ccc2ncc(F)c([C@H](O)CN3CCC(NCc4cc5c(cn4)OCCO5)CC3)c2c1, the IC50 is reported as 290 nM. Molecule COc1ccc(C(=O)Nc2cc(Br)c3c(c2)CNCC3)cc1Br has an IC50 of 910 nM. Work on CCCCCCC(C)c1cc(OCCN(CC)CC)c2c(c1)OC(C)(C)C=C2c1ccncc1 (centres undefined) yielded an IC50 of 1260 nM. CN1CCN(CC(=O)Nc2ccc(-c3ccc(-c4nc5ccc(C(F)(F)F)cc5[nH]4)s3)cc2)CC1 gave an IC50 of 570 nM. In the case of O=C(N[C@@H](CC1CCCCC1)C(=O)NC1CCCCCC1)c1ccc(O)c(-c2ccc(Cl)c(Cl)c2)c1, the IC50 is reported as 100 nM. Brc1cnc(NC2=NCCN2)c(Br)c1 was tested, and the IC50 was 340 nM. With c1ccc(-c2ccc3c(Nc4ccc5[nH]ncc5c4)ccnc3c2)nc1 the IC50 was 820 nM. For CCN(CC)c1nc(-c2ccccc2)cc(-c2ccccc2)c1C#N, the IC50 was 450 nM. For O=C1O[C@H](c2ccccc2)[C@H](c2ccccc2)N(C(=O)OCc2ccccc2)[C@H]1Cc1ccccc1C1CCCC1, the IC50 was 60 nM. In the case of CCCCCCc1cc2cc(-c3csc(C=Cc4ccccc4)n3)c(=O)oc2cc1O, the IC50 is reported as 970 nM. Oc1cc2c(cc1CN1CCN(Cc3ccc(Cl)s3)CC1)CCC2 was tested, and the IC50 was 620 nM. Cc1ccc(C=C2SC(=Nc3ccccc3)NC2=O)c(C)c1 showed an IC50 of 560 nM. C#CCNCc1ccc(-c2cccc(-c3nc4c(C)cccc4[nH]3)c2)cc1 was tested, and the IC50 was 820 nM. With CN1CCN(Cc2cc(NC(=O)c3ccc(-c4ccc(Cl)cc4Cl)cc3)ccc2-c2ccccc2)CC1 the IC50 was 970 nM. Cn1nc(C(F)(F)F)cc1-c1ccc(C(=O)NC2CCC(CN3CCC(c4c[nH]c5ccccc45)CC3)CC2)s1 (centres undefined) was tested, and the IC50 was 560 nM. CCNC(=O)N[C@@H]1CN[C@@H](C#Cc2cc3c(Nc4ccc(OCc5cccc(F)c5)c(Cl)c4)ncnc3s2)C1 showed an IC50 of 1010 nM. Molecule CC(C)NCc1ccc(-c2cccc(NC(=O)c3cccc(Cl)c3)c2)cc1 has an IC50 of 730 nM. Cc1ccccc1C1CCN(C2CCC(NC(=O)/C=C/c3cc(F)ccc3C(F)(F)F)CC2)CC1 (centres undefined) gave an IC50 of 950 nM. COc1ccc(CNCCc2cccs2)cc1-c1ccc(OC)c(S(=O)(=O)NCCN2CCCC2)c1 showed an IC50 of 1410 nM. CCc1c(C)nc(-n2nc(C)cc2NC(=O)c2cccc3ccccc23)[nH]c1=O was tested, and the IC50 was 680 nM. Molecule O=C(Nc1ccc2ccccc2n1)c1ccccc1-c1ccccc1 has an IC50 of 440 nM. CN(Cc1ccc(NC(=O)NC2CCN(C(=O)/C=C/c3ccc(Cl)c(Cl)c3)CC2)cc1)C1CCOCC1 gave an IC50 of 880 nM. CN1CCN(c2nc(NCCNc3ccc([N+](=O)[O-])cc3)c3ccccc3n2)CC1 showed an IC50 of 1320 nM. For Cc1ccccc1C1CCN(C2CCC(NC(=O)/C=C/c3cccc(Cl)c3)CC2)CC1 (centres undefined), the IC50 was 890 nM. CC(C)N1CCC(Oc2ccc(CN3CCN(C(c4ccccc4)c4ccc(Cl)cc4)CC3)cc2)CC1 (centres undefined) gave an IC50 of 940 nM. For O=C(Nc1cccc(CN2CCCN(Cc3ccc(O)cc3)CC2)c1)c1ccc(Br)cc1, the IC50 was 800 nM. CN(C)CCN(C)Cc1ccc(-c2ccc3c(Nc4ccc(Cl)cc4F)ccnc3c2)o1 showed an IC50 of 360 nM. COc1ccc(NC(=O)Nc2ccc(-c3ccccc3)cc2)cc1Cn1cnc(N2CCCNCC2)cc1=O was tested, and the IC50 was 760 nM. In the case of CC1(C)N=C(N)N=C(N)N1c1ccc(I)cc1, the IC50 is reported as 40 nM. NC1=NC(c2ccccc2)(c2cccc(O)c2)C(=O)N1CCCc1ccccc1 (centres undefined) was tested, and the IC50 was 1230 nM and 840 nM. With CCCCN(CCCC)C(=O)CC(O)c1cc2c(Cl)cc(Cl)cc2c2cc(C(F)(F)F)ccc12 (centres undefined) the IC50 was 1210 nM. For O=C(c1ccc(-c2ccc(-c3nc4ccccc4[nH]3)s2)cc1)N1CCCCC1CN1CCC(O)C1 (centres undefined), the IC50 was 1050 nM. O=C(NCCCN1CCOCC1)c1cccc(Nc2nccc(Nc3ccc(Oc4ccccc4)cc3)n2)c1 gave an IC50 of 770 nM. In the case of CCCN1CCC2(CC1)NC(C(=O)NCCC(C)C)Cc1c2[nH]c2cc(Cl)ccc12 (centres undefined), the IC50 is reported as 1380 nM. Cc1cccc2[nH]c(-c3cccc(-c4cccc(NC(=O)C(C)CN(C)C)c4)c3)nc12 (centres undefined) was tested, and the IC50 was 410 nM. O=C(Nc1ccc(-c2ccccc2)cc1)Nc1ccc2c(c1)CCNCC2 was tested, and the IC50 was 350 nM. Oc1ccc(C2CNCCc3c2cc(O)c(OCc2ccccc2)c3Cl)cc1 (centres undefined) showed an IC50 of 720 nM. In the case of N=C(N)c1ccc(Oc2ccc(C(=N)N)cc2)cc1, the IC50 is reported as 320 nM. In the case of C=CCc1c(C(=O)NCC23CC4CC(CC(C4)C2)C3)[nH]c2ccccc2c1=O, the IC50 is reported as 1030 nM.
